Assays:
[1] = tested on: IL-1B and IL-6 gene expression in rainbow trout macrophages; experiment: RT-PCR of IL-1B and IL-6 in trout macrophages with different cyclodextrins (FIG. 4); format: cell-based; conditions: trout macrophages stimulated 30 minutes to 24 hours
Procedure: Trout macrophages were stimulated for 30 minutes to 24 hours with heptakis (2,6-di-O-methyl)-β-cyclodextrin (Heptakis); methyl-β-cyclodextrin (Methyl β); beta cyclodextrin (β CyD); 2-hydroxypropyl-β-cyclodextrin (Hydroxy β); 2-hydroxypropyl-α-cyclodextrin (Hydroxy α); gamma cyclodextrin (γ CyD). RNA was extracted and RT-PCR conducted with IL-1B and IL-6. 18s was a RNA loading control. Molecular weight standard in first lane
Since there are various forms of cyclodextrins with different side groups that appear to have different effects in mammalian macrophages, the effects of different cyclodextrins on gene expression in the trout macrophage cell cultures were tested. Trout macrophages were stimulated for 30 minutes to 24 hours with heptakis (2,6-di-O-methyl)-β-cyclodextrin (Heptakis); methyl-β-cyclodextrin (Methyl β); beta cyclodextrin (β CyD); 2-hydroxypropyl-β-cyclodextrin (Hydroxy β; 2-hydroxypropyl-α-cyclodextrin (Hydroxy α); gamma cyclodextrin (γ CyD). RNA was extracted and RT-PCR conducted with IL-1B and IL-6.
From these cell experiments, it was shown that cyclodextrin could up-regulate the innate immune system and could possibly be used as an immune agent to protect fish against pathogen challenges.

zebrafish larvae [2] = experiment: LPS challenge of zebrafish larvae bathed with cyclodextrin; format: in vivo; conditions: zebrafish larvae 2 dpf, bath 67.5-500 μg/mL, then LPS 150 μg/mL Pseudomonas aeruginosa, mortality over 36 hours
Procedure: (§1) FIGS. 5A and 5B show replicates of the effects of α-cyclodextrin at various concentrations on LPS challenge. Zebrafish larvae, 2 days post-fertilization, were bathed with 0, 67.5, 125, 250 or 500 μg/mL of alpha cyclodextrin. Zebrafish larvae were then bathed with a lethal concentration (100% mortality) of LPS (150 μg/mL—Pseudomonas aeruginosa) and assessed for mortality over 36 hours. FIGS. 5A and 5B show the cumulative mortality after challenge of zebrafish larvae treated with α-cyclodextrin
as §1, with “6A” for “5A”, “6B” for “5B”, “β-cyclodextrin” for “α-cyclodextrin”, “challenge performed in replicate.” for “challenge.”, “beta” for “alpha”
To test this, zebrafish larvae, 2 days post fertilization (dpf), were bathed with 0, 67.5, 125, 250 or 500 μg/mL of beta or alpha cyclodextrin. Zebrafish larvae were then bathed with a lethal concentration (i.e., 100% mortality) of bacterial lipopolysaccharide (LPS) (150 μg/mL Pseudomonas aeurginosa). […]

zebrafish larvae [3] = experiment: Larval viability during cyclodextrin treatment after first feeding; format: in vivo; conditions: zebrafish larvae bathed with 500 μg/mL, recorded 10 days post first feeding
Procedure: The larval viability during cyclodextrin treatment was explored. The survival during treatment was compared with normal larval growth condition after first feeding (day 5 post hatch). 6 independent batches by reproduction (84 embryos by batch) of zebrafish larvae were bathed with 0 (“Control”; normal larval growth condition) or 500 μg/mL of beta cyclodextrin (“β CyD”), alpha cyclodextrin (“α CyD”) or both (“β+α CyD”; 50/50% of each). Larval survival was recorded 10 days post first feeding ([…]) and was increased with all cyclodextrin treatments (FIG. 7).

[4] = tested on: IL-1B gene expression in trout macrophages; experiment: IL-1B gene expression in primary trout macrophage culture (QPCR); format: cell-based, rainbow trout; conditions: trout macrophages stimulated 24 hours, LPS positive control
Procedure: LPS is a positive stimulatory control. Macrophages were isolated from head kidneys of rainbow trout, plated and then stimulated with the preparations for 24 hours. RNA was extracted from cells and analyzed by QPCR for IL-1B expression. Data are means for 3 independent trials.
Standard SYBR-green based methodology was used for anti-viral and pro-inflammatory gene expression in mucosal immune system (intestine/gills/skin/spleen) to evaluate effective dose and identify the effects of β-cyclodextrins on tissue activation profiles. Briefly, 2 μg of total RNA was used for cDNA synthesis (SuperScript® III, Invitrogen) and subsequently diluted with nuclease-free water to 1 ng/μL cDNA. Gene-specific high-melting temperature primers for genes of interest were designed using NCBI/Primer-BLAST suite. […] Quantitative expression data between different times were examined by one-way ANOVA using SPSS 17 statistical software and the differences were considered significant at p<0.05.
A primary trout macrophage culture system was used to investigate how pathogens are recognized by the innate immune system in fish (MacKenzie et al., Developmental and Comparative Immunology 27:393-400 (2003); Iliev et al., Molecular Immunology 42:1215-1223 (2005); Iliev et al. FEBS Letters 579 (29):6519-6528 (2005)). […] RNA was extracted from cells and analyzed by QPCR for IL-1B expression. […]

trout macrophages = experiment: QBlue Cell Viability Assay (resazurin reduction) in trout macrophages; format: cell-based, rainbow trout; conditions: same cells as FIG. 1, saponin positive control
From the text: High fluorescence indicates no loss in cell viability. Cells were the same ones used in FIG. 1. Saponin is a positive control since it kills cells.
A primary trout macrophage culture system was used to investigate how pathogens are recognized by the innate immune system in fish (MacKenzie et al., Developmental and Comparative Immunology 27:393-400 (2003); Iliev et al., Molecular Immunology 42:1215-1223 (2005); Iliev et al. FEBS Letters 579 (29):6519-6528 (2005)). In this system, macrophages can be stimulated by various compounds and the expression of immune genes such as interleukin 1 B (IL-1B) or tissue necrosis factor (TNF) can be assayed as a measure of the degree of inflammatory stimulation and, thus, activation of the innate immune system. The effect of nanoparticles on the immune system of trout as an indication of the possible harmful effects of these compounds on aquatic organisms was studied. This involved exposing the cultured trout macrophages to nanoparticles and looking for effects on IL-1B and interferon alpha (IFNa) gene expression. Bacterial lipopolysaccharide (LPS) was used as a positive stimulatory control. […] RNA was extracted from cells and analyzed by QPCR for IL-1B expression. […] The effect of beta cyclodextrin on any cell viability was determined using the QBlue Cell Viability Assay Kit (BioChain) and saponin as a positive control for cell death.

[5] = tested on: TNF, Mx, IL-6, IL-1B, TLR, IFN, CD18, PU1 gene expression in trout macrophages; experiment: RT-PCR of immune genes in trout macrophages stimulated 24 hours (FIG. 3); format: cell-based, rainbow trout
Procedure: Cells were stimulated for 24 hours and RNA extracted and RT-PCR conducted with TNF (tissue necrosis factor), Mx protein, IL-6 (interleukin 6), IL-1B (interleukin 1B), TLR (toll-like receptor), IFN (interferon), CD18 (cluster of differentiation 18), and PU1 (transcription factor PU1). 18S is a RNA loading control. Molecular weight standard in first lane.
The effects of cyclodextrin on the expression of several other genes such as TNF and IL-6 that are also pro-inflammatory were studied (FIG. 3). […] Cells were stimulated for 24 hours and RNA extracted and RT-PCR conducted with TNF (tissue necrosis factor), Mx protein, IL-6 (interleukin 6), IL-1B (interleukin 1B), TLR (toll-like receptor), IFN (interferon), CD18 (cluster of differentiation 18), and PU1 (transcription factor PU1). 18S is a RNA loading control. Molecular weight standard is in the first lane.

For `COC[C@H]1O[C@@H]2O[C@H]3[C@H](O)[C@@H](OC)[C@@H](O[C@H]4[C@H](O)[C@@H](OC)[C@@H](O[C@H]5[C@H](O)[C@@H](OC)[C@@H](O[C@H]6[C@H](O)[C@@H](OC)[C@@H](O[C@H]7[C@H](O)[C@@H](OC)[C@@H](O[C@H]8[C@H](O)[C@@H](OC)[C@@H](O[C@H]1[C@H](O)[C@H]2OC)O[C@@H]8COC)O[C@@H]7COC)O[C@@H]6COC)O[C@@H]5COC)O[C@@H]4COC)O[C@@H]3COC` [Heptakis, heptakis (2,6-di-O-methyl)-β-cyclodextrin], the IL-1B expression [1] was “stimulated” and the IL-6 expression [1] was “stimulated”.
In the case of `OC[C@H]1O[C@@H]2O[C@H]3[C@H](O)[C@@H](O)[C@@H](O[C@H]4[C@H](O)[C@@H](O)[C@@H](O[C@H]5[C@H](O)[C@@H](O)[C@@H](O[C@H]6[C@H](O)[C@@H](O)[C@@H](O[C@H]7[C@H](O)[C@@H](O)[C@@H](O[C@H]1[C@H](O)[C@H]2O)O[C@@H]7CO)O[C@@H]6CO)O[C@@H]5CO)O[C@@H]4CO)O[C@@H]3CO` [alpha cyclodextrin], the “protection of larvae against lethal LPS challenge” value (zebrafish larvae [2]) is reported as “protected the larvae against the LPS” and the “larval survival versus control” value (zebrafish larvae [3]) is reported as “increased”.
For `OC[C@H]1O[C@@H]2O[C@H]3[C@H](O)[C@@H](O)[C@@H](O[C@H]4[C@H](O)[C@@H](O)[C@@H](O[C@H]5[C@H](O)[C@@H](O)[C@@H](O[C@H]6[C@H](O)[C@@H](O)[C@@H](O[C@H]7[C@H](O)[C@@H](O)[C@@H](O[C@H]8[C@H](O)[C@@H](O)[C@@H](O[C@H]1[C@H](O)[C@H]2O)O[C@@H]8CO)O[C@@H]7CO)O[C@@H]6CO)O[C@@H]5CO)O[C@@H]4CO)O[C@@H]3CO` [beta cyclodextrin], the IL-1B expression [4] was “potent stimulator of inflammatory gene expression”, the cell viability (trout macrophages) was “No effect on viability” and the “most highly stimulated gene” value [5] was “IL-1B”. The “protection of larvae against lethal LPS challenge” value (zebrafish larvae [2]) was “protected the larvae against the LPS” and the “larval survival versus control” value (zebrafish larvae [3]) was “increased”.
With `OC[C@H]1O[C@@H]2O[C@H]3[C@H](O)[C@@H](O)[C@@H](O[C@H]4[C@H](O)[C@@H](O)[C@@H](O[C@H]5[C@H](O)[C@@H](O)[C@@H](O[C@H]6[C@H](O)[C@@H](O)[C@@H](O[C@H]7[C@H](O)[C@@H](O)[C@@H](O[C@H]8[C@H](O)[C@@H](O)[C@@H](O[C@H]9[C@H](O)[C@@H](O)[C@@H](O[C@H]1[C@H](O)[C@H]2O)O[C@@H]9CO)O[C@@H]8CO)O[C@@H]7CO)O[C@@H]6CO)O[C@@H]5CO)O[C@@H]4CO)O[C@@H]3CO` [gamma cyclodextrin] the IL-1B expression [1] was “most effective form”.
